{"source": "patent EP1463487B1", "about": "“LIPOSOMAL DELIVERY OF VITAMIN E BASED COMPOUNDS” (RESEARCH DEVELOPMENT FOUNDATION, priority 2001, dated 2003)", "key": {"[1]": {"test_system": "proliferation biomarker KI-67", "experiment": "KI-67 immunohistochemistry of tumor sections (cell proliferation)", "assay_type": "in vivo, Balb/c mice", "settings": "transplantable syngeneic mouse mammary cancer model, in comparison to controls"}, "[2]": {"test_system": "cp-70 human ovarian cancer cells", "experiment": "Apoptosis of cp-70 ovarian cancer cells in culture", "assay_type": "cell-based", "settings": "treated in culture with α-TEA"}, "[3]": {"test_system": "66 cl.4-GFP cells", "experiment": "Apoptosis by morphological evaluation of DAPI-stained nuclei", "assay_type": "cell-based, mouse", "settings": "for apoptosis: three days"}, "[4]": {"test_system": "66 cl.4-GFP cells", "experiment": "Fluorescent lung micrometastases of 66 cl.4-GFP tumors in Balb/c mice", "assay_type": "in vivo", "settings": "for Inhibition (%) Lung Metastases: Liposomal; for numbers of micrometastases (± S. E.): α-TEA EtOH/peanut oil by gavage 5 mg/day", "text": "Metastastic lesions in the five lung lobes were counted visually at time of sacrifice. Fluorescent green micro-metastatic cancer cell colonies in the left lung lobe and lymph nodes were counted using a Nikon fluorescence microscope (TE-200) with a 20 x objective (200 x magnification) and Image-Pro Plus (version 4.1; Media Cybernetics, Silver Spring, MD) software associated with the microscope. Fluorescent lesions were separated into three size grouping: <5 µm , 5-10 µm and >10 µm.\nAt sacrifice, the left lung lobe of each mouse of flash frozen and saves for detection of GFP expressing micrometatstic lesions via fluorescent microscopy."}, "[5]": {"test_system": "66 cl.4-GFP tumors", "experiment": "TUNEL assay for apoptosis in tumor sections in vivo", "design": "species or system Balb/c mice", "text": "Deparaffinized sections (5 µm) of tumor tissue were used to assess apoptosis using reagents supplied in the ApopTag In Situ Apoptosis Detection kit (Intergen, Purchase, NY) according to the manufacturer's instructions. Nuclei that stained brown were scored as positive for apoptosis and those that stained blue were scored as negative. At least sixteen 400X microscopic fields were scored per tumor. Data are presented as the mean ± S. E number of apoptotic cells counted in three separate tumors from each group. Pictures of tumor tissue were taken at 1000X magnification."}}}
{"smiles": "Cc1c(C)c2c(c(C)c1OCC(=O)O)CC[C@@](C)(CCC[C@H](C)CCC[C@H](C)CCCC(C)C)O2", "note": "[α-TEA, 2,5,7,8-tetramethyl-(2R-(4R,8R,12-trimethyltridecyl)chroman-6-yloxy) acetic acid]", "values": [{"measurement": "mean values of the proliferation biomarker KI-67 reduced", "setting": "[1]", "value": 56, "unit": "%"}, {"measurement": "apoptosis", "setting": "[2]", "value": "undergo apoptosis"}, {"measurement": "apoptosis", "setting": "[3]; 2.5 µg/ml", "value": 5, "unit": "%"}, {"measurement": "apoptosis", "setting": "[3]; 5 µg/ml", "value": 6, "unit": "%"}, {"measurement": "apoptosis (time course)", "setting": "[3]; 10 µg/ml, 2 days", "value": 20, "unit": "%"}, {"measurement": "apoptosis (time course)", "setting": "[3]; 10 µg/ml, 3 days", "value": 35, "unit": "%"}, {"measurement": "apoptosis (time course)", "setting": "[3]; 10 µg/ml, 4 days", "value": 47, "unit": "%"}, {"measurement": "apoptosis (time course)", "setting": "[3]; 10 µg/ml, 5 days", "value": 58, "unit": "%"}, {"measurement": "apoptosis", "setting": "[3]; 10 µg/ml", "value": 34, "unit": "%"}, {"measurement": "apoptosis", "setting": "[3]; 20 µg/ml", "value": 50, "unit": "%"}, {"measurement": "Inhibition (%) Metastases Lung", "setting": "[4]; Aerosol, in nebulizer per mouse: α-TEA 5 mg/d, 9NC 2 µg/d, combination 5 mg+2µg/d", "value": 71, "unit": "%"}, {"measurement": "Inhibition (%) Lung Metastases (number of lung tumor micrometastases reduced)", "setting": "[4]; EtOH/P Oil, Gavage, 5 mg/d", "value": 62, "unit": "%"}, {"measurement": "Inhibition (%) Lung Metastases", "setting": "[4]; Aerosol, 5 mg/d, in comparison to aerosol control", "value": 81, "unit": "%"}, {"measurement": "Inhibition (%) Lung Metastases", "setting": "[4]; Gavage, 3 mg/2Xd", "value": 59, "unit": "%"}, {"measurement": "micrometatstatic lung lesions", "setting": "[4]; liposomal formulation via gavage, 6 mg compound per day, 21 days, left lung lobe", "value": "21.5 /lung"}, {"measurement": "mean number of micrometastases (± S. E.)", "setting": "[4]; liposomal α-TEA/aerosol, left lung lobe, N= 8", "value": "11.4 ± 3.5"}, {"measurement": "numbers of micrometastases (± S. E.)", "setting": "[4]; size 5-10 µm", "value": "11.3± 1.8"}, {"measurement": "numbers of micrometastases (± S. E.)", "setting": "[4]; size < 5 µm", "value": "6.8±1.5"}, {"measurement": "numbers of micrometastases (± S. E.)", "setting": "[4]; size >10 µm", "value": "3.1±1.2"}, {"measurement": "apoptotic cells/field (mean ± S. E.)", "setting": "[5]; liposomal α-TEA/aerosol treatment, three tumors", "value": "2.04±0.23", "unit": "apoptotic cells/field"}, {"measurement": "mean apoptotic values (TUNEL) increased", "setting": "[5]; transplantable syngeneic mouse mammary cancer model, in comparison to controls", "value": 30, "unit": "%"}]}
